For assay [1], the system named is Helicobacter pylori. The experiment in a line: TLC bacterial overlay assay with 35S-labeled Helicobacter pylori. Type of assay: binding. The settings on record: for binding of Helicobacter pylori to the glycosphingolipid on TLC plates: overlay with 35S-labeled bacteria, autoradiography, visual evaluation; for binding of Helicobacter pylori strain 032 to purified glycosphingolipids (FIGS. 7A and 7B): 4 μg per lane, autoradiography 72 h; for binding activity of neoglycolipid with regard to Helicobacter pylori: oligosaccharide reductively aminated with 4-hexadecylaniline (HDA); for lowest amount of glycolipid giving a positive response on TLC plates: dilution series, semi-quantitative, evaluated visually, pentaglycosylceramide mean of 7 experiments; for binding of Helicobacter pylori strain 032 to purified glycosphingolipids (FIGS. 7A and 7B) / binding frequency: strain 032; for binding frequency: total number of plates about 100.

In assay [2] the test system is Helicobacter pylori. The settings on record: Mysore et al.; cited from earlier work.
Assay [3] concerns Helicobacter pylori binding to human gastrointestinal cell lines. Particulars: Simon et al.; cited from earlier work.

“Also recorded” adds a separate entry of the source.

GalNAcβ3Galβ4GlcNAcβ3Galβ4GlcβCer: in the assay with Helicobacter pylori [1], the “binding of Helicobacter pylori to the glycosphingolipid on TLC plates” value (“binding of Helicobacter pylori … on TLC plates” for short) was “bind Helicobacter pylori”; the “binding of Helicobacter pylori strain 032 to purified glycosphingolipids (FIGS. 7A and 7B)” value (“binding … (FIGS. 7A and 7B)” for short) was “binding was also found”. Moreover, in the assay on Helicobacter pylori [1] (listed as x2 GSL), the “binding of Helicobacter pylori … on TLC plates” value is “binding”.
`CCCCCCCCCCCCCCCCc1ccc(NC[C@H](O)[C@@H](O)[C@H](O[C@@H]2O[C@H](CO)[C@H](O)[C@H](O[C@@H]3O[C@H](CO)[C@@H](O[C@@H]4O[C@H](CO)[C@H](O)[C@H](O[C@@H]5O[C@H](CO)[C@@H](O)[C@H](O)[C@H]5NC(C)=O)[C@H]4O)[C@H](O)[C@H]3NC(C)=O)[C@H]2O)[C@H](O)CO)cc1` [GlcNAcβ3Galβ4GlcNAcβ3Galβ4Glc(red)-HDA]: in the assay on Helicobacter pylori [1], the “binding activity of neoglycolipid with regard to Helicobacter pylori” value (from here on “binding activity of neoglycolipid”) was “clear binding activity”.
With Galβ4GlcNAcβ3Galβ4GlcNAcβ3Galβ4GlcβCer, in the assay with Helicobacter pylori [1], the “lowest amount of glycolipid giving a positive response on TLC plates” value (“lowest amount” below) is listed as approximately 0.2 nmol/spot, the “binding of Helicobacter pylori … on TLC plates” value is given as “weaker binding; also recorded: weaker activity” and the binding frequency is reported as approximately 90%. In addition, the “binding of Helicobacter pylori … on TLC plates” value with Helicobacter pylori [1] (listed as Galβ4GlcNAcβ3Galβ4-GlcNAcβ3Galβ4GlcβCer) was “binding-active; also recorded: reduced affinity”. Moreover, the “binding of Helicobacter pylori … on TLC plates” value in the assay on Helicobacter pylori [1] (listed as hexaglycosylceramides) is on record as “displayed binding activity”.
As to sialyl-lactose, the “efficacy in rhesus monkey animal model of the infection” value in the assay with Helicobacter pylori [2] is given as “effective”. Also, the “inhibition of Helicobacter pylori binding to human gastrointestinal cell lines” value in assay [3] is listed as “inhibits”.
Regarding `CC(=O)N[C@H]1[C@H](OC[C@H]2OC(O)[C@H](O)[C@@H](O)[C@H]2O)O[C@H](CO)[C@@H](O[C@@H]2O[C@H](CO)[C@H](O)[C@H](O[C@@H]3O[C@H](CO)[C@@H](O)[C@H](O)[C@H]3NC(C)=O)[C@H]2O)[C@@H]1O` (stereo partly drawn) [GlcNAcβ3Galβ4GlcNAcβ6Gal], the “binding activity of neoglycolipid” value in the assay on Helicobacter pylori [1] is “some binding activity”.
Still for that read-out and setting: the result for GlcNAcβ3Galβ4GlcNAc(red)-HDA reads “weakly binding or inactive”.
As to “Galα3Galβ4GlcNAcβ3Galβ4GlcNAcβ3Galβ4GlcβCer”, the “binding of Helicobacter pylori … on TLC plates” value was “higher activity” in the assay on Helicobacter pylori [1] and “observed binding” with Helicobacter pylori [1] (listed as no. 28).
“Glc(A-methylamide)β3Galβ4GlcNAcβ3Galβ4GlcβCer”: in the assay on Helicobacter pylori [1], the “binding of Helicobacter pylori … on TLC plates” value is “very strong binding”.
Turning to GlcNAcβ3Galβ4GlcNAcβ3Galβ4GlcβCer, the “lowest amount” value in the assay with Helicobacter pylori [1] is listed as 0.039 nmol/spot. Moreover, the “binding of Helicobacter pylori … on TLC plates” value with Helicobacter pylori [1] is “binding-active; also recorded: high affinity”; in the assay on Helicobacter pylori [1] (listed as five-sugar glycosphingolipid from rabbit thymus) it was “equally active”; in the assay on Helicobacter pylori [1] (listed as pentaglycosylceramide), “strong activity; also recorded: highly active; also recorded: most active species”; in the assay with Helicobacter pylori [1] (listed as pentaglycosylceramides), “displayed binding activity”. In the assay with Helicobacter pylori [1], this compound yielded a binding frequency of approximately 90%.
Consider “maltoheptaose(red)-HDA [reference compound]”, for which the “binding activity of neoglycolipid” value with Helicobacter pylori [1] was “weakly binding or inactive”.
Turning to “Galβ4GlcNAcβ3(Galβ4GlcNAcβ6)Galβ4GlcβCer”, the “binding of Helicobacter pylori … on TLC plates” value in the assay on Helicobacter pylori [1] is listed as “destroyed”; in the assay on Helicobacter pylori [1] (listed as glycosphingolipid from bovine buttermilk), “non-binding”.
Take GlcNAcβ3Galβ4GlcNAcβ6GlcNAc(red)-HDA: the “binding activity of neoglycolipid” value in the assay on Helicobacter pylori [1] is reported as “strong binding activity”; with Helicobacter pylori [1] (listed as GlcNAcβ3Galβ4GlcNAcβ6GlcNAc), “high affinity binding”.
Fucα2Galβ4GlcNAcβ3Galβ4Glcβ1Cer [H5-2]: the “binding of Helicobacter pylori … on TLC plates” value in the assay with Helicobacter pylori [1] is “absence of binding”; with Helicobacter pylori [1] (listed as HS-2), “inactive”.
As to GlcNAcβ3Galβ4GlcβCer, the “binding of Helicobacter pylori … on TLC plates” value was “not binding” in the assay with Helicobacter pylori [1] and “inactive” with Helicobacter pylori [1] (listed as triglycosylceramide).
As for Galα3Galβ4GlcNAcβ3Galβ4GlcβCer, the results for the “binding of Helicobacter pylori … on TLC plates” value in the assay with Helicobacter pylori [1], with Helicobacter pylori [1] (listed as B5) and in the assay with Helicobacter pylori [1] (listed as B5 glycosphingolipid) were “bind Helicobacter pylori”, “binding” and “equally active”, respectively. In addition, in the assay with Helicobacter pylori [1], the “binding … (FIGS. 7A and 7B)” value is “binding-active”.
In the case of “GalNAcβ3Galβ3Galβ4GlcNAcβ3Galβ4Glcβ3Cer [GalNAcβ3-B5]”, the “binding of Helicobacter pylori … on TLC plates” value in the assay with Helicobacter pylori [1] is “non-binding”; in the assay with Helicobacter pylori [1] (listed as GalNAcβ3Galβ3Galβ4GlcNAcβ3Galβ4Glcβ3Cer), “did not appear to bind”; in the assay with Helicobacter pylori [1] (listed as no. 25) it was “complete loss of binding”.
In the case of Glcβ3Galβ4GlcNAcβ3Galβ4GlcβCer, in the assay with Helicobacter pylori [1], the “binding of Helicobacter pylori … on TLC plates” value was “strong binding”.
Consider Galβ4GlcNAcβ3Galβ4GlcβCer, for which, in the assay with Helicobacter pylori [1], the “lowest amount” value is recorded as approximately 0.3 nmol/spot; the “binding of Helicobacter pylori … on TLC plates” value is on record as “binding is weaker”; the “binding … (FIGS. 7A and 7B)” value is reported as “binding”. Further, the “binding of Helicobacter pylori … on TLC plates” value in the assay on Helicobacter pylori [1] (listed as tetraglycosylceramides) is “displayed binding activity”.
Consider GlcAβ3Galβ4GlcNAcβ3Galβ4GlcβCer, for which the “binding of Helicobacter pylori … on TLC plates” value with Helicobacter pylori [1] is “binding active”.
Turning to Galα3Galβ4GlcNAcβ3Galβ4Glc(red)-HDA, the “binding activity of neoglycolipid” value in the assay on Helicobacter pylori [1] is listed as “clear binding activity”.
Turning to “NeuAcα3GalNAcβ3Galβ4GlcNAcβ3Galβ4Glcβ1Cer [NeuAc-x2]”, the “binding of Helicobacter pylori … on TLC plates” value with Helicobacter pylori [1] (listed as Neu5Acα3GalNAcβ3Galβ4GlcNAcβ3Galβ4GlcβCer) was “did not appear to bind”; in the assay with Helicobacter pylori [1] (listed as NeuAcα3GalNAcβ3Galβ4GlcNAcβ3Galβ4GlcβCer), “non-binding”; in the assay with Helicobacter pylori [1] (listed as no. 24), “complete loss of binding”. The “binding … (FIGS. 7A and 7B)” value in the assay with Helicobacter pylori [1] is listed as “non-binding”.
Take Galβ4GlcNβ3Galβ4GlcβCer: the “binding of Helicobacter pylori … on TLC plates” value is given as “not binding” with Helicobacter pylori [1] and “loss of bacterial binding” in the assay on Helicobacter pylori [1] (listed as no. 6).
In the case of “Galα3(Fucα2)Galβ4GlcNAcβ3Galβ4Glcβ1Cer [B6-2]”, the “binding of Helicobacter pylori … on TLC plates” value in the assay with Helicobacter pylori [1] was “non-binding; also recorded: inactive”; in the assay with Helicobacter pylori [1] (listed as Galα3(Fucα2)Galβ4GlcNAcβ3Galβ4Glcβ3Cer), “non-binding”.
Turning to “NeuGcα3Galβ4GlcNAcβ3Galβ4GlcNAcβ3Galβ4GlcβCer”, the “binding by Helicobacter pylori isolates” value in the assay with Helicobacter pylori [1] (about 60 isolates tested) is on record as “bound by most Helicobacter pylori isolates”. In the assay with Helicobacter pylori [1], the “binding of Helicobacter pylori … on TLC plates” value is recorded as “weaker binding”.
With GalNAcα3Galβ4GlcNAcβ3Galβ4GlcβCer, the “binding of Helicobacter pylori … on TLC plates” value with Helicobacter pylori [1] is “bind Helicobacter pylori”; in the assay on Helicobacter pylori [1] (listed as GalNAcα3 Galβ4GlcNAcβ3Galβ4GlcβCer) it was “binding was also found”.
With Galα3Galβ4GlcNβ3Galβ4GlcβCer, the “binding of Helicobacter pylori … on TLC plates” value with Helicobacter pylori [1] is “not binding”; in the assay with Helicobacter pylori [1] (listed as Galα3Galβ4GlcNH2βGalβ4GlcβCer), “non-binding”; in the assay with Helicobacter pylori [1] (listed as no. 14), “loss of bacterial binding”.

Source of the values: patent publication US20040096465A1, “Novel receptors for $1(helicobater pyroli) and use thereof” (priority 2001, published 2004).
